According to publication PMC7887804 (Chemical Research in Toxicology, 2020):
Read-outs that look alike come from different tables or passages of the source. Marks after values point to notes of the source that are not given here. Each block holds one compound with its values, some of them ahead of it.

What was measured:
[1] = In vitro metabolism study; type: in vitro ADME, human; conditions: for conversion in incubations with and without the cofactor mix: RLS9 and HLS9, data not shown; for measured concentration at t = 0 lower than the added 1 μM: S9 incubation tubes, suggests binding to the plastic walls; for CLint,u: human (H), CLintapp corrected for the fraction unbound in the incubation; for CLintapp (apparent in vitro intrinsic clearance): human liver S9 (H), 1 μM substrate
[2] = In vitro metabolism study; type: in vitro ADME, rat; conditions: for CLint,u: rat (R), CLintapp corrected for the fraction unbound in the incubation; for CLintapp (apparent in vitro intrinsic clearance): rat liver S9 (R), 1 μM substrate
thyroid peroxidase (TPO) [3] = assay: QIVIVE oral equivalent dose related to TPO inhibition; parameters: species or system human; conditions: humans; for oral equivalent dose related to TPO inhibition: Cmax equal to AC50 in NCCT_TPO_AUR_dn; for margin between human exposure and oral equivalent dose related to TPO inhibition: highest exposure estimates
[4] = cited from earlier work; for pKa: A, acid, ref Tsao [40]; for logP: octanol/water, ref PubChem
[5] = cited from earlier work
[6] = positive hit calls, ToxCast summary data; cited from earlier work
[7] = test system: human thyroid peroxidase (TPO); conditions: ToxCast, cited from earlier work; for activity in the TPO assay: NCCT_TPO_AUR_dn
thyroid peroxidase (TPO) [8] = assay: QIVIVE oral equivalent dose related to TPO inhibition; parameters: species or system rat; conditions: rats, Cmax equal to AC50 in NCCT_TPO_AUR_dn
[9] = cited from earlier work; remark: listed apart in the source
[10] = 90 day toxicity study, mainly effects on hematological parameters; cited from earlier work
[11] = developmental toxicity study; cited from earlier work
[12] = rats, 100 mg/kg bw [14C]-labelled, parent compound in plasma up to 24 h; cited from earlier work
[13] = rats ♀ and ♂, 14 mg/kg bw, mean
[14] = rats ♀ and ♂, 135 mg/kg bw, mean
[15] = rats ♀, 14 mg/kg bw, mean (min–max)
[16] = rats ♀, 135 mg/kg bw, mean (min–max)
[17] = rats ♂, 14 mg/kg bw, mean (min–max)
[18] = rats ♂, 135 mg/kg bw, mean (min–max)
[19] = humans ♀ and ♂, 1.4 mg/kg bw, mean
[20] = humans ♀ and ♂, 14 mg/kg bw, mean
[21] = humans ♀, 1.4 mg/kg bw, mean (min–max)
[22] = humans ♀, 14 mg/kg bw, mean (min–max)
[23] = humans ♂, 1.4 mg/kg bw, mean (min–max)
[24] = humans ♂, 14 mg/kg bw, mean (min–max)
[25] = rats ♂, 17.5 mg/kg bw, mean (min–max)

conversion in incubations with and without the cofactor mix [1]: to some extent
measured concentration at t = 0 lower than the added 1 μM [1]: up to 2 fold
CLint,u [1]: 8800 μL/min/mg of S9 protein
CLintapp (apparent in vitro intrinsic clearance) [1]: 88 μL/min/mg of S9 protein
CLint,u [2]: 11 600 μL/min/mg of S9 protein
CLintapp (apparent in vitro intrinsic clearance) [2]: 232 μL/min/mg of S9 protein
oral equivalent dose related to TPO inhibition (thyroid peroxidase (TPO) [3]): 69 mg/kg bw
margin between human exposure and oral equivalent dose related to TPO inhibition (thyroid peroxidase (TPO) [3]): ≥ 122 fold
Structure (SMILES): CCCCCCCCCCCCOC(=O)c1cc(O)c(O)c(O)c1 [dodecyl gallate]
pKa [4]: 7.93 (A)
logP [4]: 6.37
reported in vivo Cmax ([5]; rats, 10 mg/kg bw oral, blood collected only 10 min after dosing): no detectable plasma concentrations
number of ToxCast assays in which the compound is active out of assays tested [6]: 210 out of 441
activity in the TPO assay [7]: active

Structure (SMILES): CCCOC(=O)c1cc(O)c(O)c(O)c1 [propyl gallate]
CLint,u [1]: 437 μL/min/mg of S9 protein
CLintapp (apparent in vitro intrinsic clearance) [1]: 428 μL/min/mg of S9 protein
CLint,u [2]: 835 μL/min/mg of S9 protein
CLintapp (apparent in vitro intrinsic clearance) [2]: 818 μL/min/mg of S9 protein
oral equivalent dose related to TPO inhibition (thyroid peroxidase (TPO) [3]): 6.3 mg/kg bw
oral equivalent dose related to TPO inhibition (thyroid peroxidase (TPO) [8]): 7.9 mg/kg bw
logP [4]: 1.87
reported in vivo AUC [5, 13]: ♀ and ♂ 95 n = 12 ng*hr/mL
reported in vivo Cmax [5, 13]: ♀ and ♂ 192 n = 12 ng/mL
reported in vivo AUC [5, 14]: ♀ and ♂ 1624 n = 16 ng*hr/mL
reported in vivo Cmax [5, 14]: ♀ and ♂ 4753 n = 16 ng/mL
reported in vivo AUC [5, 15]: ♀ 66 (39–100) n = 6 ng*hr/mL
reported in vivo Cmax [5, 15]: ♀ 238 (68–462) n = 6 ng/mL
reported in vivo AUC [5, 16]: ♀ 1164 (321–3451) n = 8 ng*hr/mL
reported in vivo Cmax [5, 16]: ♀ 4246 (884–12 825) n = 8 ng/mL
reported in vivo AUC [5, 17]: ♂ 123 (62–217) n = 6 ng*hr/mL
reported in vivo Cmax [5, 17]: ♂ 145 (67–334) n = 6 ng/mL
reported in vivo AUC [5, 18]: ♂ 2085 (660–4119) n = 8 ng*hr/mL
reported in vivo Cmax [5, 18]: ♂ 5260 (1635–11085) n = 8 ng/mL
reported in vivo AUC [9, 19]: ♀ and ♂ 21 n = 11 ng*hr/mL
reported in vivo Cmax [9, 19]: ♀ and ♂ 13 n = 11 ng/mL
reported in vivo AUC [9, 20]: ♀ and ♂ 346 n = 10 ng*hr/mL
reported in vivo Cmax [9, 20]: ♀ and ♂ 152 n = 10 ng/mL
reported in vivo AUC [9, 21]: ♀ 19 (13-21) n = 4 ng*hr/mL
reported in vivo Cmax [9, 21]: ♀ 12 (11–14) n = 4 ng/mL
reported in vivo AUC [9, 22]: ♀ 290 (25–425) n = 5 ng*hr/mL
reported in vivo Cmax [9, 22]: ♀ 150 (10–240) n = 5 ng/mL
reported in vivo AUC [9, 23]: ♂ 21 (9.4–42) n = 7 ng*hr/mL
reported in vivo Cmax [9, 23]: ♂ 14 (4–33) n = 7 ng/mL
reported in vivo AUC [9, 24]: ♂ 402 (290–587) n = 5 ng*hr/mL
reported in vivo Cmax [9, 24]: ♂ 155 (84–208) n = 5 ng/mL
number of ToxCast assays in which the compound is active out of assays tested [6]: 131 out of 888
AC50 ([7]; read-out: AC50 in the NCCT_TPO_AUR_dn assay, TPO inhibition): 580 nM
NOAEL [10]: 150 mg/kg bw/day
NOAEL [11]: 300 mg/kg bw/day

conversion in incubations with and without the cofactor mix [1]: to some extent
measured concentration at t = 0 lower than the added 1 μM [1]: up to 2 fold
CLint,u [1]: 3999 μL/min/mg of S9 protein
CLintapp (apparent in vitro intrinsic clearance) [1]: 3119 μL/min/mg of S9 protein
CLint,u [2]: 4695 μL/min/mg of S9 protein
CLintapp (apparent in vitro intrinsic clearance) [2]: 3662 μL/min/mg of S9 protein
oral equivalent dose related to TPO inhibition (thyroid peroxidase (TPO) [3]): 99 mg/kg bw
margin between human exposure and oral equivalent dose related to TPO inhibition (thyroid peroxidase (TPO) [3]): at least 106 fold
Structure (SMILES): CCCCCCCCOC(=O)c1cc(O)c(O)c(O)c1 [octyl gallate]
pKa [4]: 7.94 (A)
logP [4]: 4.33
reported in vivo Cmax ([5]; rats ♀, 17.5 mg/kg bw, mean): ♀ 20 (range NR)^a ng/mL
reported in vivo AUC [5, 25]: ♂ 3.7 (1.4–7.8) n = 6 ng*hr/mL
reported in vivo Cmax [5, 25]: ♂ 19 (9–41) n = 6 ng/mL
number of ToxCast assays in which the compound is active out of assays tested [6]: 355 out of 982
activity in the TPO assay [7]: active

CLint,u [1]: 121 μL/min/mg of S9 protein
CLintapp (apparent in vitro intrinsic clearance) [1]: 102 μL/min/mg of S9 protein
CLint,u [2]: 642 μL/min/mg of S9 protein
CLintapp (apparent in vitro intrinsic clearance) [2]: 629 μL/min/mg of S9 protein
faster conversion (CLint) by RLS9 compared with HLS9 ([2]; rat vs human liver S9): 6 fold
Structure (SMILES): COC(=O)c1ccc(O)cc1 [methylparaben]
conversion in incubations with and without the cofactor mix [1]: occurs both in the presence and absence of the cofactor mix
reported in vivo Cmax [12]: No parent compound was detected
number of ToxCast assays in which the compound is active out of assays tested [6]: 24 out of 886
